Data as given in patent EP1268431B1 (Wyeth, priority 2000, dated 2001).

Key:
[1] = tested on: human adenocarcinoma cell line CaCo-2; assay: Cell Based Screen for Inhibitors of Raf Kinase, CaCo-2 cells; conditions: CaCo-2, four days, SRB
Protocol: (§1) • Cell Lines: Human adenocarcinoma cell line LoVo which is known to be growth inhibited by low nM concentrations of a reference standard inhibitor of Ras and human adenocarcinoma cell line CaCo-2, which is known to be growth resistant to the same reference compound. • Cell Media: RPMI 1640 with 10% Fetal Bovine Serum supplemented with L-glutamine and Pennicilin/Streptomycin. • Compounds: Supplied usually as a 10 mM stock in 100% DMSO. • Normal Saline: 150 mM NaCl • Trichloroacetic Acid (TCA): 50% (w/v) in water • Sulforhodamine B (SRB): 0.4% (w/v) in 1% Acetic Acid • Tris Base: 10 mM in water
(§2) Cells are plated at 2000 cells per well for cell line LoVo and 1500 cells for cell line CaCo-2 in 96 well plates. Cells are plated in media (200 µl) and allowed to adhere overnight at 37° C. At 24 hours post plating, compounds are added directly at a volume of 0.5 µl. For the qualitative screen (compounds screened at 25 µM) compound is added directly to cells. For the quantitative screen, compound is first diluted in DMSO to generate concentrations of compound or reference standard of: 1, 5, 10 and 25 µM. It is advisable to make the dilutions in an identical 96 well plate so that compounds may be added using a multichannel micropipettor set at 0.5 µl. The cells are then incubated for four days after which the media is removed using a 12 well manifold by first tipping the plate forward at a 45 degree angle and then inserting the manifold in an upright orientation to prevent the tips of the manifold from disturbing cells at the bottom of the plate. 200 µl of normal saline is then added to each well using an 8 well multichannel pipettor, followed by the careful addition of 50 µl of 50% TCA. The plates are then incubated for 2 hours at 4 ° C, after which the supernatant is removed using the same technique as above and the plated washed twice with 200 µl water. The plates are then air dried and 50 µl of SRB stock solution is carefully added so that the entire bottom of each well is covered. This again may be used using an 8 well multichannel pipettor. The SRB is incubated with fixed cells for 15 minutes at room temperature after which the SRB is removed with the manifold as described above and the plates washed twice with 350 µl of 1% acetic acid per well each time.The plates are then air dried after which the bound SRB is released from protein by the addition of 200 µl of Tris base. Resolubilizing the SRB is aided by placing the plates on a rotator for 15-30 minutes. The absorbance of each well is determined at 550 or 562 nm using a microtiter plate reader.
(§3) Each compound or dilution thereof is performed in triplicate. Outliers are identified by visual inspection of the data. Each plate should have a "0" control (vehicle only).
(§4) Quantitative Assay: A standard curve is constructed by plotting the concentration of compound against the average absorbance calculated at that concentration. A curve is plotted and the concentration at which the curve passes through the 50% the absorbance mark seen in the "0" control well is the IC50 calculated for that compound. […]

[2] = tested on: Human adenocarcinoma cell line LoVo; assay: Cell Based Screen for Inhibitors of Raf Kinase, LoVo cells; conditions: four days, SRB
Protocol: as §1, §2, §3, §4

Structure (SMILES) | IC50 ([1]; Homo sapiens, Caco-2, 96 h) | IC50 ([2]; Homo sapiens, 96 h) | IC50 [1] | IC50 [2]
CN1CCN(Cc2ccc(-c3ccc4c(Nc5ccc(Sc6nccn6C)c(Cl)c5)c(C#N)cnc4c3)nc2)CC1 [Example 189, 4-{3-chloro-4-[(1-methyl-1H-imidazol-2-yl)sulanyl]anilino}-7-{5-[(4-methyl-1-piperazinyl)methyl]-2-pyridinyl}-3-quinolinecarbonitrile] | 1250 nM | 6 nM |  | 
Cn1ccnc1Sc1ccc(Nc2c(C#N)cnc3cc(-c4ccc(CN5CCN(CCO)CC5)o4)ccc23)cc1Cl [Example 157, 4-{3-chloro-4-[(1-methyl-1H-imidazol-2-yl)sulfanyl]anilino}-7-(5-{[4-(2-hydroxyethyl)-1-piperazinyl]methyl}-2-furyl)-3-quinolinecarbonitrile] | > 1000 nM | 24.5 nM |  | 
Cn1ccnc1Sc1ccc(Nc2c(C#N)cnc3cc(-c4ccc(CN5CCC(N6CCCC6)CC5)cn4)ccc23)cc1Cl [Example 173, 4-{3-chloro-4-[(1-methyl-1H-imidazol-2-yl)sulfanyl]anilino}-7-(5-{[4-(1-pyrrolidinyl)-1-piperidinyl]methyl}-2-pyridinyl)-3-quinolinecarbonitrile] | > 1000 nM | 25 nM |  | 
Cn1ccnc1Sc1ccc(Nc2c(C#N)cnc3cc(-c4ccc(N5CCN(CCO)CC5)nc4)ccc23)cc1Cl [Example 215, 4-({3-chloro-4-[(1-methyl-1H-imidazol-2-yl)sulfanyl]phenyl}amino)-7-{6-[4-(2-hydroxyethyl)-1-piperazinyl]-3-pyridinyl}-3-quinolinecarbonitrile] | > 1000 nM | 3.5 nM |  | 
CCN1CCN(Cc2ccnc(-c3ccc4c(Nc5ccc(Sc6nccn6C)c(Cl)c5)c(C#N)cnc4c3)c2)CC1 [Example 205, 4-({3-chloro-4-[(1-methyl-1H-imidazol-2-yl)sulfanyl]phenyl}amino)-7-{4-[(4-ethyl-1-piperazinyl)methyl]-2-pyridinyl}-3-quinolinecarbonitrile] | 940 nM | 275 nM |  | 
Cn1ccnc1Sc1ccc(Nc2c(C#N)cnc3cc(-c4cc(CN5CCOCC5)ccn4)ccc23)cc1Cl [Example 203, 4-({3-chloro-4-[(1-methyl-1H-imidazol-2-yl)sulfanyl]phenyl}amino)-7-[4-(4-morpholinylmethyl)-2-pyridinyl]-3-quinolinecarbonitrile] | > 1000 nM | 9.7 nM |  | 
CN1CCN(c2ccc(-c3ccc4c(Nc5ccc(Sc6nccn6C)c(Cl)c5)c(C#N)cnc4c3)cn2)CC1 [Example 196, 4-{3-chloro-4-[(1-methyl-1H-imidazol-2-yl)sulfanyl]anilino}-7-[6-(4-methyl-1-piperazinyl)-3-pyridinyl]-3-quinolinecarbonitrile] | 1100 nM | < 5 nM | 550 nM | 2.9 nM
CN1CCN(Cc2ccc(-c3ccc4c(Nc5ccc(Sc6nccn6C)c(Cl)c5)c(C#N)cnc4c3)cc2)CC1 [Example 135, 4-{3-chloro-4-[(1-methyl-1H-imidazol-2-yl)sulfanyl]anilino}-7-{4-[(4-methyl-1-piperazinyl)methyl]phenyl}-3-quinolinecarbonitrile] | > 1000 nM | 6.8 nM |  | 
N#Cc1cnc2cc(-c3csc(CN4CCOCC4)c3)ccc2c1Nc1ccc(Oc2ccccc2)cc1 [Example 7, 7-[5-(4-Morpholinylmethyl)-3-thienyl]-4-(4-phenoxyanilino)-3-quinolinecarbonitrile] | > 10000 nM | 3700 nM |  | 
COC(=O)C1CCN(Cc2ccc(-c3ccc4c(Nc5ccc(Sc6nccn6C)c(Cl)c5)c(C#N)cnc4c3)nc2)CC1 [Example 107, Methyl 1-{[6-(4-{3-chloro-4-[(1-methyl-1H-imidazol-2-yl)sulfanyl]anilino}-3-cyano-7-quinolinyl)-3-pyridinyl]methyl}-4-piperidinecarboxylate] | > 1000 nM | 25 nM |  | 
N#Cc1cnc2cc(-c3csc(CN4CCOCC4)c3)ccc2c1Nc1ccc(Cc2ccccc2)cc1 [Example 8, 4-(4-Benzylanilino)-7-[5-(4-morpholinylmethyl)-3-thienyl]-3-quinolinecarbonitrile] | > 10000 nM | > 10000 nM |  | 

Next, values leading:

IC50 ([1]; Homo sapiens, Caco-2, 96 h) | IC50 ([2]; Homo sapiens, 96 h) | IC50 [1] | IC50 [2] | Structure (SMILES)
> 1000 nM | 8.4 nM |  |  | CCN1CCN(Cc2cccc(-c3ccc4c(Nc5ccc(Sc6nccn6C)c(Cl)c5)c(C#N)cnc4c3)n2)CC1 [Example 201, 4-{3-chloro-4-[(1-methyl-1H-imidazol-2-yl)sulfanyl]anilino}-7-{6-[(4-ethyl-1-piperazinyl)methyl]-2-pyridinyl}-3-quinolinecarbonitrile]
> 1000 nM | 280 nM |  |  | CN1CCN(Cc2ccnc(-c3ccc4c(Nc5ccc(Sc6nccn6C)c(Cl)c5)c(C#N)cnc4c3)c2)CC1 [Example 206, 4-({3-chloro-4-[(1-methyl-1H-imidazol-2-yl)sulfanyl]phenyl}amino)-7-{4-[(4-methyl-1-piperazinyl)methyl]-2-pyridinyl}-3-quinolinecarbonitrile]
> 1000 nM | 9.5 nM |  |  | Cn1ccnc1Sc1ccc(Nc2c(C#N)cnc3cc(-c4cccc(CN5CCOCC5)n4)ccc23)cc1Cl [Example 199, 4-{3-chloro-4-[(1-methyl-1H-imidazol-2-yl)sulfanyl]anilino}-7-[6-(4-morpholinylmethyl)-2-pyridinyl]-3-quinolinecarbonitrile]
> 1000 nM | 7.9 nM |  |  | Cn1ccnc1Sc1ccc(Nc2c(C#N)cnc3cc(-c4ccc(CN5CCC(O)CC5)cn4)ccc23)cc1Cl [Example 172, 4-{3-chloro-4-[(1-methyl-1H-imidazol-2-yl)sulfanyl]anilino}-7-{5-[(4-hydroxy-1-piperidinyl)methyl]-2-pyridinyl}-3-quinolinecarbonitrile]
> 1000 nM | 48.5 nM |  |  | Cn1ccnc1Sc1ccc(Nc2c(C#N)cnc3cc(-c4ccc(CN5CCN(C(=O)OC(C)(C)C)CC5)cc4)ccc23)cc1Cl [Example 137, tert-butyl 4-{4-[4-({3-chloro-4-[(1-methyl-1H-imidazol-2-yl)sulfanyl]phenyl}amino)-3-cyano-7-quinolinyl]benzyl}-1-piperazinecarboxylate]
620 nM | 4.1 nM |  |  | Cn1ccnc1Sc1ccc(Nc2c(C#N)cnc3cc(-c4ccc(CN5CCCCC5)s4)ccc23)cc1Cl [Example 160, 4-{3-chloro-4-[(1-methyl-1H-imidazol-2-yl)sulfanyl]anilino}-7-[5-(1-piperidinylmethyl)-2-thienyl]-3-quinolinecarbonitrile]
> 1000 nM | 4.6 nM |  |  | Cn1ccnc1Sc1ccc(Nc2c(C#N)cnc3cc(-c4ccc(CN5CCC(O)CC5)cc4)ccc23)cc1Cl [Example 134, 4-{3-chloro-4-[(1-methyl-1H-imidazol-2-yl)sulfanyl]anilino}-7-{4-[(4-hydroxy-1-piperidinyl)methyl]phenyl}-3-quinolinecarbonitrile]
> 1000 nM | 15 nM |  |  | Cn1ccnc1Sc1ccc(Nc2c(C#N)cnc3cc(-c4ccc(CN5CCSCC5)cn4)ccc23)cc1Cl [Example 219]
> 1000 nM | 5.7 nM |  |  | Cn1ccnc1Sc1ccc(Nc2c(C#N)cnc3cc(-c4ccc(N5CCC(O)CC5)nc4)ccc23)cc1Cl [Example 214, 4-({3-chloro-4-[(1-methyl-1H-imidazol-2-yl)sulfanyl]phenyl}amino)-7-[6-(4-hydroxy-1-piperidinyl)-3-pyridinyl]-3-quinolinecarbonitrile]
390 nM | 2.6 nM |  |  | CCN1CCN(c2ccc(-c3ccc4c(Nc5ccc(Sc6nccn6C)c(Cl)c5)c(C#N)cnc4c3)nc2)CC1 [Example 108, 4-({3-Chloro-4-[(1-methyl-1H-imidazol-2-yl)sulfanyl]phenyl}amino)-7-[5-(4-ethyl-1-piperazinyl)-2-pyridinyl]-3-quinolinecarbonitrile]
> 1000 nM | 6.4 nM |  |  | CN(CCO)Cc1ccc(-c2ccc3c(Nc4ccc(Sc5nccn5C)c(Cl)c4)c(C#N)cnc3c2)nc1 [Example 106, 4-({3-Chloro-4-[(1-methyl-1H-imidazol-2-yl)sulfanyl]phenyl}amino)-7-(5-{[(2-hydroxyethyl)(methyl)amino]methyl}-2-pyridinyl)-3-quinolinecarbonitrile]
